Measurements reported in PubChem BioAssay (NCI).
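Values below derive from 48-hour exposures of cells grown in 96-well plates, with endpoints linearly interpolated between the two concentrations bracketing the appropriate inhibition level. GI50: concentration for 50% inhibition of growth. TGI is the concentration that stops growth completely.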

Key:
Test in all cases: inhibition of tumour cell growth, NCI panel, 48 h
[1] = test system: EKVX NSCLC
[2] = test system: U251 CNS
[3] = test system: COLO 205 colon
[4] = test system: OVCAR-5 ovarian
[5] = test system: SK-MEL-2 melanoma
[6] = test system: NCI-H23 lung
[7] = test system: HCT-116 colon
[8] = test system: LOX IMVI melanoma
[9] = test system: NCI-H460 lung
[10] = test system: K-562 leukemia
[11] = test system: M14 melanoma
[12] = test system: BT-549 breast
[13] = test system: MCF7 breast
[14] = test system: OVCAR-4 ovarian
[15] = test system: HCT-15 colon
[16] = test system: CAKI-1 renal
[17] = test system: KM12 colon
[18] = test system: SK-OV-3 ovarian
[19] = test system: SK-MEL-28 melanoma
[20] = test system: HOP-92 NSCLC
[21] = test system: MALME-3M melanoma
[22] = test system: ACHN renal
[23] = test system: SN12C renal
[24] = test system: SF-268 CNS
[25] = test system: HS 578T breast
[26] = test system: NCI/ADR-RES ovarian
[27] = test system: HOP-62 NSCLC
[28] = test system: DU-145 prostate
[29] = test system: UO-31 renal
[30] = test system: NCI-H522 lung
[31] = test system: SNB-19 CNS
[32] = test system: 786-0 renal
[33] = test system: SW-620 colon
[34] = test system: TK-10 renal
[35] = test system: RXF 393 renal
[36] = test system: HL-60(TB) leukemia
[37] = test system: SF-539 CNS
[38] = test system: MOLT-4 leukemia
[39] = test system: A498 renal
[40] = test system: OVCAR-3 ovarian
[41] = test system: NCI-H226 lung
[42] = test system: IGROV1 ovarian
[43] = test system: HCC-2998 colon
[44] = test system: A549 NSCLC
[45] = test system: SK-MEL-5 melanoma
[46] = test system: T-47D breast
[47] = test system: OVCAR-8 ovarian
[48] = test system: UACC-62 melanoma
[49] = test system: HT29 colon
[50] = test system: MDA-MB-435
[51] = test system: RPMI-8226 leukemia
[52] = test system: UACC-257 melanoma
[53] = test system: SF-295 CNS
[54] = test system: MDA-MB-231 breast
[55] = test system: PC-3 prostate
[56] = test system: SNB-75 CNS
[57] = test system: SR leukemia
[58] = test system: CCRF-CEM leukemia

O=C(O)c1c(=O)cccc2ssc12
GI50 [1]: 1.35 µM
TGI [1]: 3.12 µM
GI50 [2]: 1.74 µM
TGI [2]: 3.16 µM
GI50 [3]: 2 µM
TGI [3]: 3.91 µM
GI50 [4]: 1.71 µM
TGI [4]: 3.45 µM
GI50 [5]: 2.03 µM
TGI [5]: 3.83 µM
GI50 [6]: 1.75 µM
TGI [6]: 3.45 µM
GI50 [7]: 1.62 µM
TGI [7]: 3.32 µM
GI50 [8]: 1.78 µM
TGI [8]: 3.42 µM
GI50 [9]: 1.96 µM
TGI [9]: 4.13 µM
GI50 [10]: 2.04 µM
TGI [10]: 5.51 µM
GI50 [11]: 1.92 µM
TGI [11]: 4.07 µM
GI50 [12]: 1.68 µM
TGI [12]: 3.12 µM
GI50 [13]: 1.83 µM
TGI [13]: 3.9 µM
GI50 [14]: 2.21 µM
TGI [14]: 4.87 µM
GI50 [15]: 1.73 µM
TGI [15]: 3.52 µM
GI50 [16]: 12 µM
TGI [16]: 24.6 µM
GI50 [17]: 1.9 µM
TGI [17]: 3.72 µM
GI50 [18]: 1.74 µM
TGI [18]: 3.26 µM
GI50 [19]: 1.69 µM
TGI [19]: 3.25 µM
GI50 [20]: 1.86 µM
TGI [20]: 3.79 µM
GI50 [21]: 2.22 µM
TGI [21]: 4.45 µM
GI50 [22]: 1.72 µM
TGI [22]: 3.21 µM
GI50 [23]: 2.49 µM
TGI [23]: 6.32 µM
GI50 [24]: 1.73 µM
TGI [24]: 3.46 µM
GI50 [25]: 2.43 µM
TGI [25]: 5.54 µM
GI50 [26]: 2.4 µM
TGI [26]: 5.68 µM
GI50 [27]: 1.81 µM
TGI [27]: 3.44 µM
GI50 [28]: 1.92 µM
TGI [28]: 3.73 µM
GI50 [29]: 1.66 µM
TGI [29]: 3.44 µM
GI50 [30]: 1.61 µM
TGI [30]: 3.24 µM
GI50 [31]: 1.92 µM
TGI [31]: 3.79 µM
GI50 [32]: 1.88 µM
TGI [32]: 3.44 µM
GI50 [33]: 2.22 µM
TGI [33]: 5.59 µM
GI50 [34]: 1.75 µM
TGI [34]: 3.23 µM
GI50 [35]: 1.91 µM
TGI [35]: 3.39 µM
GI50 [36]: 1.81 µM
TGI [36]: 4.43 µM
GI50 [37]: 1.98 µM
TGI [37]: 3.84 µM
GI50 [38]: 2.13 µM
TGI [38]: 5.11 µM
GI50 [39]: 1.98 µM
TGI [39]: 3.54 µM
GI50 [40]: 1.81 µM
TGI [40]: 3.38 µM
GI50 [41]: 1.87 µM
TGI [41]: 3.6 µM
GI50 [42]: 2.39 µM
TGI [42]: 5.91 µM
GI50 [43]: 1.8 µM
TGI [43]: 3.36 µM
GI50 [44]: 1.86 µM
TGI [44]: 3.77 µM
GI50 [45]: 2.41 µM
TGI [45]: 5.85 µM
GI50 [46]: 2.15 µM
TGI [46]: 5.24 µM
GI50 [47]: 1.76 µM
TGI [47]: 3.18 µM
GI50 [48]: 2.09 µM
TGI [48]: 4.59 µM
GI50 [49]: 1.89 µM
TGI [49]: 3.64 µM
GI50 [50]: 1.93 µM
TGI [50]: 3.75 µM
GI50 [51]: 2.19 µM
TGI [51]: 5.66 µM
GI50 [52]: 2.02 µM
TGI [52]: 4.19 µM
GI50 [53]: 1.67 µM
TGI [53]: 3.17 µM
GI50 [54]: 2.29 µM
TGI [54]: 4.67 µM
GI50 [55]: 1.83 µM
TGI [55]: 3.58 µM

O=C1C=CC(=O)N1c1cccc(N2C(=O)C=CC2=O)c1
GI50 [1]: 19.1 µM
TGI [1]: 83.1 µM
GI50 [2]: 11.4 µM
TGI [2]: 25.2 µM
GI50 [3]: 1.39 µM
TGI [3]: 2.88 µM
GI50 [4]: 1.81 µM
TGI [4]: 4.06 µM
GI50 [5]: 2.52 µM
TGI [5]: 5.55 µM
GI50 [6]: 2.54 µM
TGI [6]: 7.07 µM
GI50 [7]: 1.7 µM
TGI [7]: 3.22 µM
GI50 [8]: 2.02 µM
TGI [8]: 4.02 µM
GI50 [9]: 18.3 µM
TGI [9]: 38.6 µM
GI50 [10]: 2.67 µM
TGI [10]: 7.7 µM
GI50 [11]: 1.85 µM
TGI [11]: 3.71 µM
GI50 [12]: 7.51 µM
TGI [12]: 20.2 µM
GI50 [13]: 2.52 µM
TGI [13]: 5.52 µM
GI50 [56]: 4.71 µM
TGI [56]: 18.3 µM
GI50 [15]: 1.91 µM
TGI [15]: 3.93 µM
GI50 [17]: 8.33 µM
TGI [17]: 22.7 µM
GI50 [18]: 18.2 µM
TGI [18]: 32.1 µM
GI50 [19]: 1.95 µM
TGI [19]: 3.78 µM
GI50 [20]: 1.75 µM
TGI [20]: 3.78 µM
GI50 [21]: 3 µM
TGI [21]: 6.94 µM
GI50 [22]: 1.77 µM
TGI [22]: 3.21 µM
GI50 [23]: 2 µM
TGI [23]: 5.31 µM
GI50 [24]: 7.09 µM
TGI [24]: 19.8 µM
GI50 [25]: 2.17 µM
TGI [25]: 5.73 µM
GI50 [26]: 2.38 µM
TGI [26]: 6.14 µM
GI50 [27]: 16.8 µM
TGI [27]: 33.5 µM
GI50 [28]: 10.9 µM
TGI [28]: 22.8 µM
GI50 [29]: 1.94 µM
TGI [29]: 4.11 µM
GI50 [30]: 1.62 µM
TGI [30]: 3.04 µM
GI50 [31]: 18.6 µM
TGI [31]: 35.8 µM
GI50 [32]: 1.84 µM
TGI [32]: 3.44 µM
GI50 [57]: 3.07 µM
TGI [57]: > 100 µM
GI50 [33]: 1.99 µM
TGI [33]: 3.87 µM
GI50 [34]: 1.71 µM
TGI [34]: 3.13 µM
GI50 [35]: 1.7 µM
TGI [35]: 3.1 µM
GI50 [36]: 1.79 µM
TGI [36]: 5.12 µM
GI50 [37]: 1.84 µM
TGI [37]: 3.46 µM
GI50 [38]: 2.74 µM
TGI [38]: 7.73 µM
GI50 [39]: 16.2 µM
TGI [39]: 31.1 µM
GI50 [40]: 2.04 µM
TGI [40]: 3.54 µM
GI50 [41]: 2.91 µM
TGI [41]: 7.63 µM
GI50 [42]: 2.38 µM
TGI [42]: 5.52 µM
GI50 [43]: 12.9 µM
TGI [43]: 26.4 µM
GI50 [44]: 19.3 µM
TGI [44]: 45.4 µM
GI50 [45]: 10.9 µM
TGI [45]: 23 µM
GI50 [58]: 2.27 µM
TGI [58]: 7.65 µM
GI50 [47]: 2.25 µM
TGI [47]: 5.17 µM
GI50 [48]: 2.48 µM
TGI [48]: 9.46 µM
GI50 [49]: 2.3 µM
TGI [49]: 4.94 µM
GI50 [50]: 3.85 µM
TGI [50]: 16.2 µM
GI50 [51]: 2.94 µM
TGI [51]: 7.19 µM
GI50 [52]: 1.65 µM
TGI [52]: 3.32 µM
GI50 [53]: 21.2 µM
TGI [53]: 44.5 µM
GI50 [54]: 1.97 µM
TGI [54]: 4.53 µM
GI50 [55]: 13.4 µM
TGI [55]: 31.6 µM
